Results from the NIST ThermoML archive (doi:10.1021/je700152c).
Numbers after ± are expanded uncertainties.

Assay: molar heat capacity at saturation pressure; xn = mol fraction of the nth substance listed

CCCCn1cc[n+](C)c1.Cc1ccc(S(=O)(=O)[O-])cc1 [1-butyl-3-methylimidazolium tosylate] + O
Details	molar heat capacity [J/K/mol]
294.67 K, Crystal, x1 = 0.3	204.91 ± 2.1
294.68 K, Crystal, x1 = 0.83	580.85 ± 5.2
294.91 K, Crystal, x1 = 0.37	561.1 ± 5
295.64 K, Crystal, x1 = 0.37	590.88 ± 5.2
295.82 K, Liquid, x1 = 0.3	198.57 ± 2
296.25 K, Crystal, x1 = 0.83	574.07 ± 5.2
296.33 K, Crystal, x1 = 0.37	593.15 ± 5.2
296.53 K, Metastable crystal, x1 = 0.83	425.47 ± 3.9
296.97 K, Liquid, x1 = 0.3	199.1 ± 2
297.06 K, Crystal, x1 = 0.37	577.63 ± 5.2
297.82 K, Crystal, x1 = 0.37	542.42 ± 5.2
297.88 K, Crystal, x1 = 0.83	481.52 ± 4.4
298.13 K, Liquid, x1 = 0.3	199.52 ± 2
298.45 K, Metastable crystal, x1 = 0.83	435.64 ± 3.9
298.66 K, Crystal, x1 = 0.37	429.59 ± 4.9
299.28 K, Liquid, x1 = 0.3	199.84 ± 2
299.67 K, Crystal, x1 = 0.83	439.03 ± 3.9
299.68 K, Crystal, x1 = 0.37	268.68 ± 4
300.26 K, Metastable crystal, x1 = 0.83	440.59 ± 3.9
301.01 K, Liquid, x1 = 0.3	200.58 ± 2
301.5 K, Crystal, x1 = 0.83	445.81 ± 3.9
301.5 K, Liquid, x1 = 0.37	233.85 ± 2.3
302.51 K, Metastable crystal, x1 = 0.83	454.93 ± 4.2
303.31 K, Crystal, x1 = 0.83	454.15 ± 4.2
303.34 K, Liquid, x1 = 0.3	201.21 ± 2
304 K, Liquid, x1 = 0.37	232.59 ± 2.3
305.11 K, Crystal, x1 = 0.83	462.49 ± 4.2
305.64 K, Liquid, x1 = 0.3	201.95 ± 2.1
306.39 K, Metastable crystal, x1 = 0.83	484.39 ± 4.4
306.5 K, Liquid, x1 = 0.37	233.6 ± 2.3
306.89 K, Crystal, x1 = 0.83	471.88 ± 4.2
307.94 K, Liquid, x1 = 0.3	202.8 ± 2.1
308.65 K, Crystal, x1 = 0.83	484.39 ± 4.4
309 K, Liquid, x1 = 0.37	234.48 ± 2.3
309.82 K, Metastable crystal, x1 = 0.83	516.2 ± 4.7
310.24 K, Liquid, x1 = 0.3	203.54 ± 2.1
310.39 K, Crystal, x1 = 0.83	497.69 ± 4.4
311.5 K, Liquid, x1 = 0.37	235.37 ± 2.3
312.09 K, Crystal, x1 = 0.83	512.81 ± 4.7
312.54 K, Liquid, x1 = 0.3	204.38 ± 2.1
313.06 K, Metastable crystal, x1 = 0.83	550.87 ± 5
313.75 K, Crystal, x1 = 0.83	529.23 ± 4.7
313.99 K, Liquid, x1 = 0.37	236.25 ± 2.4
314.83 K, Liquid, x1 = 0.3	205.13 ± 2.1
315.4 K, Crystal, x1 = 0.83	549.31 ± 5
316.18 K, Metastable crystal, x1 = 0.83	596.49 ± 5.2
316.49 K, Liquid, x1 = 0.37	237.13 ± 2.4
317.02 K, Crystal, x1 = 0.83	571.21 ± 5
317.13 K, Liquid, x1 = 0.3	205.87 ± 2.1
318.6 K, Crystal, x1 = 0.83	596.23 ± 5.2
318.98 K, Liquid, x1 = 0.37	238.14 ± 2.4
319.16 K, Metastable crystal, x1 = 0.83	653.33 ± 5.7
319.42 K, Liquid, x1 = 0.3	206.82 ± 2.1
320.13 K, Crystal, x1 = 0.83	624.39 ± 5.5
321.47 K, Liquid, x1 = 0.37	239.03 ± 2.4
321.62 K, Crystal, x1 = 0.83	655.93 ± 5.7
321.7 K, Liquid, x1 = 0.3	207.45 ± 2.1
321.99 K, Metastable crystal, x1 = 0.83	719.81 ± 6.3
323.06 K, Crystal, x1 = 0.83	690.35 ± 6
323.96 K, Liquid, x1 = 0.37	239.91 ± 2.4
323.99 K, Liquid, x1 = 0.3	208.19 ± 2.1
324.46 K, Crystal, x1 = 0.83	727.63 ± 6.3
324.62 K, Metastable crystal, x1 = 0.83	811.31 ± 7
325.81 K, Crystal, x1 = 0.83	774.82 ± 6.8
326.27 K, Liquid, x1 = 0.3	209.04 ± 2.1
326.44 K, Liquid, x1 = 0.37	240.92 ± 2.4
327.04 K, Metastable crystal, x1 = 0.83	934.11 ± 8.1
327.1 K, Crystal, x1 = 0.83	828.52 ± 7
328.33 K, Crystal, x1 = 0.83	892.65 ± 7.6
328.55 K, Liquid, x1 = 0.3	209.99 ± 2.1
328.93 K, Liquid, x1 = 0.37	241.8 ± 2.4
329.23 K, Metastable crystal, x1 = 0.83	1093.4 ± 9.4
329.5 K, Crystal, x1 = 0.83	965.13 ± 8.3
330.61 K, Crystal, x1 = 0.83	1053 ± 9.1
330.82 K, Liquid, x1 = 0.3	210.94 ± 2.1
331.17 K, Metastable crystal, x1 = 0.83	1295.7 ± 11
331.41 K, Liquid, x1 = 0.37	242.69 ± 2.4
331.64 K, Crystal, x1 = 0.83	1141.9 ± 9.6
332.6 K, Crystal, x1 = 0.83	1224.8 ± 11
332.82 K, Metastable crystal, x1 = 0.83	1513.7 ± 13
333.09 K, Liquid, x1 = 0.3	212.21 ± 2.1
333.26 K, Crystal, x1 = 0.83	1386.4 ± 13
333.89 K, Liquid, x1 = 0.37	243.57 ± 2.4
334.14 K, Crystal, x1 = 0.83	1617.9 ± 14
334.32 K, Metastable crystal, x1 = 0.83	1881.5 ± 16
335.19 K, Crystal, x1 = 0.83	1296.5 ± 12
335.35 K, Liquid, x1 = 0.3	213.8 ± 2.1
336.19 K, Crystal, x1 = 0.83	1133.3 ± 11
336.37 K, Liquid, x1 = 0.37	244.45 ± 2.4
336.41 K, Metastable crystal, x1 = 0.83	678.36 ± 13
337.35 K, Crystal, x1 = 0.83	711.99 ± 9.1
337.61 K, Liquid, x1 = 0.3	215.06 ± 2.2
338.19 K, Crystal, x1 = 0.83	480.74 ± 7
338.85 K, Liquid, x1 = 0.37	245.21 ± 2.4
339.63 K, Liquid, x1 = 0.83	464.32 ± 4.2
339.88 K, Liquid, x1 = 0.3	213.58 ± 2.1
340.02 K, Liquid, x1 = 0.83	459.1 ± 4.2
341.32 K, Liquid, x1 = 0.37	246.09 ± 2.4
341.87 K, Liquid, x1 = 0.83	460.41 ± 4.2
342.14 K, Liquid, x1 = 0.3	213.58 ± 2.1
342.82 K, Liquid, x1 = 0.83	461.71 ± 4.2
343.71 K, Liquid, x1 = 0.83	461.71 ± 4.2
343.8 K, Liquid, x1 = 0.37	246.98 ± 2.4
344.41 K, Liquid, x1 = 0.3	214.32 ± 2.1
345.56 K, Liquid, x1 = 0.83	462.75 ± 4.2
345.93 K, Liquid, x1 = 0.83	463.79 ± 4.2
346.27 K, Liquid, x1 = 0.37	247.86 ± 2.4
346.67 K, Liquid, x1 = 0.3	214.96 ± 2.2
347.4 K, Liquid, x1 = 0.83	464.06 ± 4.2
348.75 K, Liquid, x1 = 0.37	248.62 ± 2.4
348.93 K, Liquid, x1 = 0.3	215.7 ± 2.2
349.04 K, Liquid, x1 = 0.83	465.88 ± 4.2
349.25 K, Liquid, x1 = 0.83	465.36 ± 4.2
351.1 K, Liquid, x1 = 0.83	466.66 ± 4.2
351.19 K, Liquid, x1 = 0.3	216.44 ± 2.2
351.22 K, Liquid, x1 = 0.37	249.38 ± 2.4
352.16 K, Liquid, x1 = 0.83	467.97 ± 4.2
352.94 K, Liquid, x1 = 0.83	467.71 ± 4.2
353.44 K, Liquid, x1 = 0.3	217.07 ± 2.2
353.69 K, Liquid, x1 = 0.37	250.51 ± 2.4
354.79 K, Liquid, x1 = 0.83	469.01 ± 4.2
355.28 K, Liquid, x1 = 0.83	469.79 ± 4.2
355.69 K, Liquid, x1 = 0.3	217.81 ± 2.2
356.16 K, Liquid, x1 = 0.37	251.4 ± 2.5
356.63 K, Liquid, x1 = 0.83	470.31 ± 4.2
357.94 K, Liquid, x1 = 0.3	218.55 ± 2.2
358.39 K, Liquid, x1 = 0.83	471.88 ± 4.2
358.47 K, Liquid, x1 = 0.83	471.62 ± 4.2
358.63 K, Liquid, x1 = 0.37	252.4 ± 2.5
360.18 K, Liquid, x1 = 0.3	219.19 ± 2.2
360.31 K, Liquid, x1 = 0.83	472.92 ± 4.2
361.09 K, Liquid, x1 = 0.37	253.04 ± 2.5
361.5 K, Liquid, x1 = 0.83	473.7 ± 4.2
362.15 K, Liquid, x1 = 0.83	474.22 ± 4.2
362.42 K, Liquid, x1 = 0.3	219.82 ± 2.2
363.55 K, Liquid, x1 = 0.37	253.92 ± 2.5
363.99 K, Liquid, x1 = 0.83	475.27 ± 4.2
364.61 K, Liquid, x1 = 0.83	475.79 ± 4.2
364.66 K, Liquid, x1 = 0.3	220.25 ± 2.2
365.82 K, Liquid, x1 = 0.83	476.31 ± 4.2
366 K, Liquid, x1 = 0.37	254.68 ± 2.5
366.89 K, Liquid, x1 = 0.3	221.09 ± 2.2
367.72 K, Liquid, x1 = 0.83	477.87 ± 4.2
368.46 K, Liquid, x1 = 0.37	255.69 ± 2.5
